The record followed here is patent publication US20190364896A1, “SYNERGISTIC WEED CONTROL FROM APPLICATIONS OF PYRIDINE CARBOXYLIC ACID HERBICIDES AND ALS INHIBITORS” (Dow AgroSciences LLC, priority 2014, published 2019).

What all share (assay): Postemergence herbicidal activity, greenhouse trial (visual injury 0-100%)
Holding throughout (type): in vivo

Test [1] deals with wild buckwheat (Polygonum convolvulus, POLCO). The procedure:
(§1) Seeds of the desired test plant species were planted in Sun Gro MetroMix® 306 planting mixture, which typically has a pH of 6.0 to 6.8 and an organic matter content of about 30 percent, in plastic pots with a surface area of 103.2 square centimeters (cm^2). […] The plants were grown for 7-36 days (d) in a greenhouse with an approximate 14-hour (h) photoperiod which was maintained at about 23° C. during the day and 22° C. during the night. Nutrients and water were added on a regular basis and supplemental lighting was provided with overhead metal halide 1000-Watt lamps as necessary. The plants were employed for testing when they reached the second or third true leaf stage.
(§2) Weighed amounts of technical or formulated material (emulsifiable concentrate (EC) or soluble concentrate (SL)) were dissolved in a volume of 97:3 volume per volume (v/v) acetone/dimethyl sulfoxide (DMSO) to stock solutions. […] The concentrated stock solutions were diluted with an aqueous mixture of 1.5% v/v of Agri-dex crop oil concentrate to provide the appropriate application rates. Compound requirements are based upon a 12 milliliter (mL) application volume at a rate of 187 liters per hectare (L/ha). Spray solutions of the experimental compound mixtures were prepared by adding the stock solutions to the appropriate amount of dilution solution to form a 12 mL spray solution in two-way combinations. Formulated compounds were applied to the plant material with an overhead Mandel track sprayer equipped with 8002E nozzles calibrated to deliver 187 L/ha over an application area of 0.503 square meters (m^2) at a spray height of 18 inches (43 centimeters (cm)) above average plant canopy. Control plants were sprayed in the same manner with the solvent blank. Application rates for component (a) are in g ae/ha, and application rates for component (b) are in g ai/ha.
(§3) The treated plants and control plants were placed in a greenhouse as described above and watered by sub-irrigation to prevent wash-off of the test compounds. After 20-22 d, the condition of the test plants as compared with that of the control plants was determined visually and scored on a scale of 0 to 100 percent where 0 corresponds to no injury and 100 corresponds to complete kill. Colby's equation was used to determine the herbicidal effects expected from the mixtures. […]
(§4) Weighed amounts of technical material were dissolved in a volume of 97:3 volume per volume (v/v) acetone/dimethyl sulfoxide (DMSO) to stock solutions. […] The concentrated stock solutions were diluted with an aqueous mixture of 1.5% v/v of Agri-dex crop oil concentrate to provide the appropriate application rates. Compound requirements are based upon a 12 milliliter (mL) application volume at a rate of 187 liters per hectare (L/ha).

Test [2] concerns nutsedge (Cyperus esculentus, CYPES). To be noted: Cyperus, post-emergence, read-out: % visual injury Obs. The procedure: as §1
as §2, with “technical” for “technical or formulated”, “material” for “material (emulsifiable concentrate (EC) or soluble concentrate (SL))”
as §3, §2

Test [3] concerns thistle (Cirsium arvense, CIRAR). The procedure: as §1, §2, §3, §4
The test system of test [4] is kochia (Kochia scoparia, KCHSC). As for the experimental part:
as §1, §2, §3, §4

Test [5] relates to chickweed (Stellaria media, STEME). As for the experimental part:
as §1, §2
(§5) The treated plants and control plants were placed in a greenhouse as described above and watered by sub-irrigation to prevent wash-off of the test compounds. After 20-22 d, the condition of the test plants as compared with that of the control plants was determined visually and scored on a scale of 0 to 100 percent where 0 corresponds to no injury and 100 corresponds to complete kill. The condition of the test plants was compared with that of the control plants as determined visually and scored on a scale of 0 to 100 percent, where 0 corresponds to no injury and 100 corresponds to complete kill. Colby's equation was used to determine the herbicidal effects expected from the mixtures.
(§6) Compound 1 was formulated as an EC and was combined with florasulam, cloransulam, diclosulam, flumetsulam, penoxsulam, or pyroxsulam. Compound 2 was formulated as an EC and was combined with florasulam or pyroxsulam. The mixtures were applied to winter wheat (TRZAW), common rice (ORYSA), maize (ZEAMX), and the phytotoxicity of the herbicidal compositions was measured. In addition, the efficacy of the herbicidal compositions on blackgrass (Alopecurus myosuroides, ALOMY), pigweed (Amaranthus retrollexus, AMARE), wild oat (Avena fatua, AVEFA), common lambsquarters (Chenopodium album L., CHEAL), thistle (Cirsium arvense CIRAR), nutsedge (Cyperus esculentus, CYPES), barnyardgrass (Echinochloa crus-galli, ECHCG), poinsettia (Euphorbia heterophylla, EPHHL), ivyleaf morning-glory (Ipomoea hederacea, IPOHE), kochia (Kochia scoparia, KCHSC), wild buckwheat (Polygonum convolvulus, POLCO), grain sorghum (Sorghum vulgare, SORVU), chickweed (Stellaria media, STEME), wild pansy (Viola tricolor, VIOTR), was evaluated.
(§7) Weighed amounts of technical material were dissolved in a volume of 97:3 volume per volume (v/v) acetone/dimethyl sulfoxide (DMSO) to stock solutions. […] The concentrated stock solutions were diluted with an aqueous mixture of 1.5% v/v of Agri-dex crop oil concentrate to provide the appropriate application rates. Compound requirements are based upon a 12 milliliter (mL) application volume at a rate of 187 liters per hectare (L/ha). […]

The test system of test [6] is barnyardgrass (Echinochloa crus-galli, ECHCG). As to conditions: Echinochloa crus-galli, post-emergence, ECHCG; thifensulfuron 15 g ai/ha; read-out: % visual injury Obs. The procedure:
as §1, §2, §5, §6, §7

The subject of test [7] is ivyleaf morning-glory (Ipomoea hederacea, IPOHE). As to conditions: IPOHE. The procedure: as §1, §2, §5, §6, §7
The test system of test [8] is poinsettia (Euphorbia heterophylla, EPHHL). To be noted: Euphorbia heterophylla, post-emergence; 4.375 g ai/ha; read-out: % visual injury Obs. The procedure:
as §1
as §2, with “technical” for “technical or formulated”, “material” for “material (emulsifiable concentrate (EC) or soluble concentrate (SL))”
as §3, §2

In test [9] the test system is pigweed (Amaranthus retroflexus, AMARE). The procedure: as §1, §2, §3, §4
Test [10] has as its system common lambsquarters (Chenopodium album L., CHEAL). To be noted: Chenopodium album, post-emergence, 4.375 g ai/ha; read-out: % visual injury Obs. As for the experimental part: as §1, §2, §5, §6, §7
Test [11] concerns wild pansy (Viola tricolor, VIOTR). To be noted: Viola tricolor, post-emergence, VIOTR, read-out: % visual injury Obs. The procedure: as §1, §2, §5
as §6, with “Compound 1 was formulated as an EC and was combined with florasulam, cloransulam, diclosulam, flumetsulam, penoxsulam, or pyroxsulam.” left out
as §4

In the case of `COC(=O)c1ccc(I)cc1S(=O)(=O)[N-]C(=O)Nc1nc(C)nc(OC)n1.[Na+]`, the pest or weed control at 2.5 g/ha in test [1] (Fallopia convolvulus, post-emergence, POLCO, iodosulfuron 2.5 g ai/ha, read-out: % visual injury Obs) came out at 80%.
`COC(=O)c1csc(C)c1S(=O)(=O)NC(=O)n1nc(OC)n(C)c1=O`: the pest or weed control at 5 g/ha in test [2] (5 g ai/ha) was 70%; in [3] (Cirsium arvense, post-emergence, 5 g ai/ha, read-out: % visual injury Obs), 50%; in test [4] (Bassia scoparia, post-emergence, 5 g ai/ha, read-out: % visual injury Obs) it was 10%; in test [5] (Stellaria media, post-emergence, 5 g ai/ha, read-out: % visual injury Obs), 95%.
Regarding `COC(=O)c1sccc1S(=O)(=O)NC(=O)Nc1nc(C)nc(OC)n1`, the pest or weed control at 15 g/ha in [2] (CYPES, thifensulfuron 15 g ai/ha) was 0%; in test [3] (Cirsium arvense, post-emergence, CIRAR, thifensulfuron 15 g ai/ha, read-out: % visual injury Obs), 10%; in test [6], 10%; in [7] (Ipomoea hederacea, post-emergence, thifensulfuron 15 g ai/ha, read-out: % visual injury Obs), 85%.
In the case of `COC(=O)c1ccccc1S(=O)(=O)NC(=O)N(C)c1nc(C)nc(OC)n1`, the pest or weed control at […] was determined as 0% in test [2] (CYPES, tribenuron 7.5 g ai/ha); 90% in test [1] (Fallopia convolvulus, post-emergence, POLCO, tribenuron 7.5 g ai/ha, read-out: % visual injury Obs); 70% in test [4] (Bassia scoparia, post-emergence, KCHSC, tribenuron 7.5 g ai/ha, read-out: % visual injury Obs); 65% in test [7] (Ipomoea hederacea, post-emergence, tribenuron 7.5 g ai/ha, read-out: % visual injury Obs).
Turning to `CCOc1nc(F)cc2nc(S(=O)(=O)Nc3c(Cl)cccc3C(=O)OC)nn12` [Cloransulam, cloransulam], the pest or weed control was 50% in test [2] (4.375 g ai/ha); 30% in [8]; 85% in test [1] (Fallopia convolvulus, post-emergence, 4.375 g ai/ha, read-out: % visual injury Obs); 99% in [3] (Cirsium arvense, post-emergence, 4.375 g ai/ha, read-out: % visual injury Obs); 0% in [9] (Amaranthus retroflexus, post-emergence, 4.375 g ai/ha, read-out: % visual injury Obs); 0% in test [4] (Bassia scoparia, post-emergence, 4.375 g ai/ha, read-out: % visual injury Obs). In addition, the pest or weed control in [5] (Stellaria media, post-emergence, 4.375 g ai/ha, read-out: % visual injury Obs) was found to be 0%; in test [10], 0%.
`CCOc1ccccc1OS(=O)(=O)NC(=O)Nc1nc(OC)cc(OC)n1` [Ethoxysulfuron, ethoxysulfuron]: the pest or weed control at 10 g/ha is 40% in test [11] (ethoxysulfuron 10 g ai/ha); 20% in [9] (Amaranthus retroflexus, post-emergence, AMARE, ethoxysulfuron 10 g ai/ha, read-out: % visual injury Obs); 0% in test [4] (Bassia scoparia, post-emergence, KCHSC, ethoxysulfuron 10 g ai/ha, read-out: % visual injury Obs); 10% in test [5] (Stellaria media, post-emergence, STEME, ethoxysulfuron 10 g ai/ha, read-out: % visual injury Obs).
Take `CCS(=O)(=O)c1nc2ccccn2c1S(=O)(=O)NC(=O)Nc1nc(OC)cc(OC)n1` [Sulfosulfuron, sulfosulfuron]: the pest or weed control at 8.75 g/ha was 80% in test [2] (CYPES, sulfosulfuron 8.75 g ai/ha); 80% in [11] (sulfosulfuron 8.75 g ai/ha); 80% in [1] (Fallopia convolvulus, post-emergence, POLCO, sulfosulfuron 8.75 g ai/ha, read-out: % visual injury Obs); 85% in test [3] (Cirsium arvense, post-emergence, CIRAR, sulfosulfuron 8.75 g ai/ha, read-out: % visual injury Obs).
Take halosulfuron: the “% visual injury Obs” value came out at 30% in test [1] (POLCO, halosulfuron 8.75 g ai/ha); 10% in [3] (CIRAR, halosulfuron 8.75 g ai/ha); 30% in [9] (AMARE, halosulfuron 17.5 g ai/ha); 0% in [4] (KCHSC, halosulfuron 17.5 g ai/ha); 50% in [5] (STEME, halosulfuron 17.5 g ai/ha); 20% in test [7] (halosulfuron 17.5 g ai/ha).
